The values below come from patent publication US20240246967A1, “AXL COMPOUNDS” (ARCUS BIOSCIENCES, INC., priority 2021, published 2024).

In this experiment the target is T1, human MER (Homo sapiens, UniProt Q12866).
T1 construct: purchased Invitrogen
T1 sequence (Q12866 21-999): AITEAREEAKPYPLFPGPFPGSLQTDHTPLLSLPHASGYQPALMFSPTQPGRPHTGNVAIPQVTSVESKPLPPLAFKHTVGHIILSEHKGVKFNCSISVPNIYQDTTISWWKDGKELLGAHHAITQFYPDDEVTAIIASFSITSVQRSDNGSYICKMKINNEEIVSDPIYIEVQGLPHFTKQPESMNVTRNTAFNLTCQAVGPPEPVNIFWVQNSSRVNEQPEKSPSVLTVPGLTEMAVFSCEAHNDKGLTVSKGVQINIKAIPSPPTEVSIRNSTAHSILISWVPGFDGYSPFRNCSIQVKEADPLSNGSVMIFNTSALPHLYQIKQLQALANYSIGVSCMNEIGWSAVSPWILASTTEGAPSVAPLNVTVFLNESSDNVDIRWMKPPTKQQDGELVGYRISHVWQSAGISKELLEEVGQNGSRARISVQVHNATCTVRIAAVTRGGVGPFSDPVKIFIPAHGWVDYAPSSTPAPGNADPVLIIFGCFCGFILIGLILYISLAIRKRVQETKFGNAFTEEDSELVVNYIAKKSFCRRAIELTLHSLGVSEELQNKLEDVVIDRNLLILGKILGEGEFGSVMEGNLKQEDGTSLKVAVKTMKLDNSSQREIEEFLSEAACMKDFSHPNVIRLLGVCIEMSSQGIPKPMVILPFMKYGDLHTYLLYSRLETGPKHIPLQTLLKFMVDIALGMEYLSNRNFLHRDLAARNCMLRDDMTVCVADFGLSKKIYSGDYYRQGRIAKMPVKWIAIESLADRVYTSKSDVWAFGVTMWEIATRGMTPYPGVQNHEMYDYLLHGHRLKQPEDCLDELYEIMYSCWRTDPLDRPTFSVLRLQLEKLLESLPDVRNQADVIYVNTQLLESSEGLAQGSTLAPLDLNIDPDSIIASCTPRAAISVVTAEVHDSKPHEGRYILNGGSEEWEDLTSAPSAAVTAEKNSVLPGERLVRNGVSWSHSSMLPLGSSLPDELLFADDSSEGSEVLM
Briefly: HTRF KinEASE-TK biochemical potency assay, MER. Particulars: 1 nM MER, 700 μM ATP, 800 nM TK Substrate-biotin. Summed up: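 Enzyme (final 5 nM AXL; 1 nM TYRO3 or MER) plus compound, 1 h RT → add biotinylated TK substrate (800 nM final) and ATP (700 μM final) → 2 h RT → stop into HTRF detection mix → read 665/620 nm. Activity normalised to DMSO and pre-stopped blanks.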
A general note: Time-resolved FRET reads energy transfer from a long-lived donor to a nearby acceptor.
Usually IC50 stands for the point on the concentration scale where inhibition reaches its midpoint. Read a high IC50 as weaker potency. `C[C@@H]1CCCN1C1(C)CCc2ccc(-c3cnc4[nH]nc(-c5ccc(S(=O)(=O)C6CC6)cc5)c4c3)cc2CC1` (stereo partly drawn) [Example 1, 3-(4-(Cyclopropylsulfonyl)phenyl)-5-(7-methyl-7-((R)-2-methylpyrrolidin-1-yl)-6,7,8,9-tetrahydro-5H-benzo[7]annulen-2-yl)-1H-pyrazolo[3,4-b]pyridine] yielded an IC50 of 100 to 1000 nM.

Compound `CC1(N2CCOCC2)CCc2ccc(-c3cnc4[nH]nc(-c5ccc(S(=O)(=O)C6CC6)cc5)c4c3)cc2CC1` (stereo not shown) [Example 2, 4-(2-{3-[4-(Cyclopropanesulfonyl)phenyl]-1H-pyrazolo[3,4-b]pyridin-5-yl}-7-methyl-6,7,8,9-tetrahydro-5H-benzo[7]annulen-7-yl)morpholine] showed a concentration for half-maximal inhibition (IC50) greater than 1000 nM.

`CC1(N2CCC[C@@H]2CO)CCc2ccc(-c3cnc4[nH]nc(-c5ccc(S(=O)(=O)C6CC6)cc5)c4c3)cc2CC1` (stereo partly drawn) [Example 3, [(2R)-1-(2-{3-[4-(Cyclopropanesulfonyl)phenyl]-1H-pyrazolo[3,4-b]pyridin-5-yl}-7-methyl-6,7,8,9-tetrahydro-5H-benzo[7]annulen-7-yl)pyrrolidin-2-yl]methanol] registered an IC50 of 100 to 1000 nM.

Regarding `C[C@@H]1CCCN1C1CCc2ccc(-c3cnc4[nH]nc(-c5ccc(C6(O)CCOC6)c(Cl)c5)c4c3)cc2CC1` (stereo partly drawn) [Example 63, 3-[2-Chloro-4-(5-{7-[(2R)-2-methylpyrrolidin-1-yl]-6,7,8,9-tetrahydro-5H-benzo[7]annulen-2-yl}-1H-pyrazolo[3,4-b]pyridin-3-yl)phenyl]oxolan-3-ol], the IC50 was 100 to 1000 nM.

`C[C@@H]1CCCN1C1CCc2ccc(-c3cnc4[nH]nc(-c5ccc(C6(O)COC6)c(Cl)c5)c4c3)cc2CC1` (stereo partly drawn) [Example 64, 3-[2-Chloro-4-(5-{7-[(2R)-2-methylpyrrolidin-1-yl]-6,7,8,9-tetrahydro-5H-benzo[7]annulen-2-yl}-1H-pyrazolo[3,4-b]pyridin-3-yl)phenyl]oxetan-3-ol] came in with an IC50 greater than 1000 nM.

Compound `C[C@@H]1CCCN1C1CCc2ccc(-c3cnc4[nH]nc(-c5cnc(C(C)(C)O)c(Cl)c5)c4c3)cc2CC1` (stereo partly drawn) [Example 65, 2-[3-Chloro-5-(5-{7-[(2R)-2-methylpyrrolidin-1-yl]-6,7,8,9-tetrahydro-5H-benzo[7]annulen-2-yl}-1H-pyrazolo[3,4-b]pyridin-3-yl)pyridin-2-yl]propan-2-ol] registered an IC50 of 100 to 1000 nM.

`COC1CCN(C(=O)c2ccc(-c3n[nH]c4ncc(-c5ccc6c(c5)CC[C@@H](N5CCCC5)CC6)cc34)cc2Cl)CC1` [Example 66, (S)-(2-Chloro-4-(5-(7-(pyrrolidin-1-yl)-6,7,8,9-tetrahydro-5H-benzo[7]annulen-2-yl)-1H-pyrazolo[3,4-b]pyridin-3-yl)phenyl)(4-methoxypiperidin-1-yl)methanone] displayed an IC50 of 100 to 1000 nM.

For the compound `COC1CCN(C(=O)c2ccc(-c3n[nH]c4ncc(-c5ccc6c(c5)CCC(C)(N5CCC[C@H]5C)CC6)cc34)cc2Cl)CC1` (stereo partly drawn) [Example 67, 1-[2-Chloro-4-(5-{7-methyl-7-[(2R)-2-methylpyrrolidin-1-yl]-6,7,8,9-tetrahydro-5H-benzo[7]annulen-2-yl}-1H-pyrazolo[3,4-b]pyridin-3-yl)benzoyl]-4-methoxypiperidine], the 50% inhibitory concentration (IC50) fell in the range of 100 to 1000 nM.

For the compound `C[C@@H]1CCCN1C1(C)CCc2ccc(-c3cnc4[nH]nc(-c5ccc(C(N)=O)c(Cl)c5)c4c3)cc2CC1` (stereo partly drawn) [Example 68, 2-Chloro-4-(5-{7-methyl-7-[(2R)-2-methylpyrrolidin-1-yl]-6,7,8,9-tetrahydro-5H-benzo[7]annulen-2-yl}-1H-pyrazolo[3,4-b]pyridin-3-yl)benzamide], the IC50 was less than 100 nM.

Regarding `C[C@@H]1CCCN1C1(C)CCc2ccc(-c3cnc4[nH]nc(-c5ccc(C(=O)NC6CC6)cc5)c4c3)cc2CC1` (stereo partly drawn) [Example 69, N-Cyclopropyl-4-(5-{7-methyl-7-[(2R)-2-methylpyrrolidin-1-yl]-6,7,8,9-tetrahydro-5H-benzo[7]annulen-2-yl}-1H-pyrazolo[3,4-b]pyridin-3-yl)benzamide], the IC50 fell in the range of 100 to 1000 nM.

As for `CC(C)NC(=O)c1ccc(-c2n[nH]c3ncc(-c4ccc5c(c4)CCC(C)(N4CCC[C@H]4C)CC5)cc23)cc1` (stereo partly drawn) [Example 70, 4-(5-{7-Methyl-7-[(2R)-2-methylpyrrolidin-1-yl]-6,7,8,9-tetrahydro-5H-benzo[7]annulen-2-yl}-1H-pyrazolo[3,4-b]pyridin-3-yl)-N-(propan-2-yl)benzamide], the IC50 was greater than 1000 nM.

As for `COCCNC(=O)c1ccc(-c2n[nH]c3ncc(-c4ccc5c(c4)CCC(C)(N4CCC[C@H]4C)CC5)cc23)cc1` (stereo partly drawn) [Example 72, N-(2-Methoxyethyl)-4-(5-{7-methyl-7-[(2R)-2-methylpyrrolidin-1-yl]-6,7,8,9-tetrahydro-5H-benzo[7]annulen-2-yl}-1H-pyrazolo[3,4-b]pyridin-3-yl)benzamide], the IC50 is greater than 1000 nM.

On to `CCC1(N2CCC[C@H]2C)CCc2ccc(-c3cnc4[nH]nc(-c5ccc(C(N)=O)c(Cl)c5)c4c3)cc2CC1` (stereo partly drawn) [Example 73, 2-Chloro-4-(5-{7-ethyl-7-[(2R)-2-methylpyrrolidin-1-yl]-6,7,8,9-tetrahydro-5H-benzo[7]annulen-2-yl}-1H-pyrazolo[3,4-b]pyridin-3-yl)benzamide], for which the IC50 is less than 100 nM.

Compound `CCC1(N2CCC[C@@H]2CO)CCc2ccc(-c3cnc4[nH]nc(-c5ccc(C(N)=O)c(Cl)c5)c4c3)cc2CC1` (stereo partly drawn) [Example 74, 2-Chloro-4-(5-{7-ethyl-7-[(2R)-2-(hydroxymethyl)pyrrolidin-1-yl]-6,7,8,9-tetrahydro-5H-benzo[7]annulen-2-yl}-1H-pyrazolo[3,4-b]pyridin-3-yl)benzamide] had a 50% inhibitory concentration (IC50) of less than 100 nM.

Turning to `CCC1(N2CCC[C@H]2CO)CCc2ccc(-c3cnc4[nH]nc(-c5ccc(C(N)=O)c(Cl)c5)c4c3)cc2CC1` (stereo partly drawn) [Example 75, 2-Chloro-4-(5-{7-ethyl-7-[(2S)-2-(hydroxymethyl)pyrrolidin-1-yl]-6,7,8,9-tetrahydro-5H-benzo[7]annulen-2-yl}-1H-pyrazolo[3,4-b]pyridin-3-yl)benzamide], the IC50 is less than 100 nM.

Compound `C[C@@H]1CCCN1C1(C)CCc2ccc(-c3cnc4[nH]nc(-c5ccc(C(=O)N6CCC6)cc5)c4c3)cc2CC1` (stereo partly drawn) [Example 76, (2R)-1-(2-{3-[4-(Azetidine-1-carbonyl)phenyl]-1H-pyrazolo[3,4-b]pyridin-5-yl}-7-methyl-6,7,8,9-tetrahydro-5H-benzo[7]annulen-7-yl)-2-methylpyrrolidine] displayed an IC50 of 100 to 1000 nM.

Take `NC(=O)c1ccc(-c2n[nH]c3ncc(-c4ccc5c(c4)CCC(N4CCCC4)CC5)cc23)cc1Cl` (stereo not shown) [Example 77, 2-Chloro-4-(5-(7-(pyrrolidin-1-yl)-6,7,8,9-tetrahydro-5H-benzo[7]annulen-2-yl)-1H-pyrazolo[3,4-b]pyridin-3-yl)benzamide]: the IC50 is less than 100 nM.

`NC(=O)c1ccc(-c2n[nH]c3ncc(-c4ccc5c(c4)CCC(N4CCCC4)CC5)cc23)cc1` (stereo not shown) [Example 78, 4-(5-(7-(Pyrrolidin-1-yl)-6,7,8,9-tetrahydro-5H-benzo[7]annulen-2-yl)-1H-pyrazolo[3,4-b]pyridin-3-yl)benzamide] registered an IC50 of 100 to 1000 nM.

With `Cc1cc(-c2n[nH]c3ncc(-c4ccc5c(c4)CCC(N4CCCC4)CC5)cc23)cc(F)c1C(N)=O` (stereo not shown) [Example 79, 2-Fluoro-6-methyl-4-(5-(7-(pyrrolidin-1-yl)-6,7,8,9-tetrahydro-5H-benzo[7]annulen-2-yl)-1H-pyrazolo[3,4-b]pyridin-3-yl)benzamide], the IC50 is 100 to 1000 nM.

Compound `NC(=O)c1ccc(-c2n[nH]c3ncc(-c4ccc5c(c4)CCC(N4CCCC4)CC5)cc23)cc1C(F)(F)F` (stereo not shown) [Example 80, 4-(5-(7-(Pyrrolidin-1-yl)-6,7,8,9-tetrahydro-5H-benzo[7]annulen-2-yl)-1H-pyrazolo[3,4-b]pyridin-3-yl)-2-(trifluoromethyl)benzamide] registered an IC50 of 100 to 1000 nM.

In the case of `NC(=O)c1ccc(-c2n[nH]c3ncc(-c4ccc5c(c4)CCC(N4CCCC4)CC5)cc23)cc1F` (stereo not shown) [Example 81, 2-Fluoro-4-(5-(7-(pyrrolidin-1-yl)-6,7,8,9-tetrahydro-5H-benzo[7]annulen-2-yl)-1H-pyrazolo[3,4-b]pyridin-3-yl)benzamide], the IC50 fell in the range of 100 to 1000 nM.

Compound `O=C(c1ccc(-c2n[nH]c3ncc(-c4ccc5c(c4)CC[C@@H](N4CCCC4)CC5)cc23)cc1Cl)N1CCNCC1` [Example 82, (S)-(2-Chloro-4-(5-(7-(pyrrolidin-1-yl)-6,7,8,9-tetrahydro-5H-benzo[7]annulen-2-yl)-1H-pyrazolo[3,4-b]pyridin-3-yl)phenyl)(piperazin-1-yl)methanone] came in with an IC50 of less than 100 nM.
